This note sets out measurements from US9549886B2, “Personal care formulations containing alkyl ketal esters and methods of manufacture” (SEGETIS, INC., priority 2010, dated 2017).

Data set [1] is described as follows: Miscibility of alkyl ketal esters with water and organic compounds. Type of data set: physicochemical. The settings on record: for miscible in water to the extent of / miscible with water / miscible with water to the extent of: 25° C. unless stated otherwise; for dissolves or is miscible with organic compounds to the extent of: organic compounds as listed in the block (alcohols, esters, oils, solvents), 80 parts of the ketal. How it is done:
Unless stated otherwise, miscibility is assessed at 25° C.

The nature of data set [2]: Three-component miscibility test (mixing in a vial at room temperature and shaking, visual clarity). The source says:
The term “miscible” and its variations (“miscibility”, “compatibility”, and the like) are used herein as a synonym for “soluble”, i.e., a mixture of the materials by themselves form a “true” solution, in which one material is molecularly dispersed in the other, or in which one material is dispersed as droplets which have a longest dimension of less than 200 nm, such that the mixture is optically clear. […] A fully miscible alkyl ketal ester is soluble in another material, such as water, at all proportions from 99:1 to 1:99. A partially miscible alkyl ketal ester is immiscible in another material in proportions from greater than 30 parts of the alkyl ketal ester in 70 parts or less of the other material and miscible in other combinations. A sparingly miscible alkyl ketal ester is immiscible in another material or miscible in another material to the extent of less than 10 parts in 90 parts of the other material. […] Unless stated otherwise, miscibility is assessed at 25° C. […] By “macroscopically uniform,” it is meant that the formulation is uniform when viewed at a length scale of at least 10 micrometers.
In these tests, clear mixtures as observed without magnification from a distance of, e.g., 0.3 meters are considered to be “miscible,” whereas cloudy or phase separated mixtures are considered to be “immiscible.” […]
Three-component mixtures of ethyl-LGK, ethanol, and avobenzone were prepared by mixing the materials at various proportions at room temperature in a vial and shaking. […]
Three-component mixtures of ethyl-LGK, water, and oxybenzone were prepared by mixing the materials at various proportions at room temperature in a vial and shaking. […]
Three-component mixtures of Et-LGK, water, and phenoxyethanol were prepared by mixing the materials at various proportions at room temperature in a vial and shaking.
Three-component mixtures of N,N-diethyl-m-toluamide (DEET), ethyl-LGK, and water were prepared by mixing the materials at various proportions at room temperature in a vial and shaking.

A short description of data set [3]: Solubility of active agents in neat alkyl ketal esters (dissolution, storage at room temperature). The settings on record: for % solids in Et-LGK that did not (completely) dissolve or precipitated at room temperature / % solids in Et-LPK that did not (completely) dissolve or precipitated at room temperature: insoluble; for % solids in Et-LGK that did not (completely) dissolve or precipitated at room temperature: partially dissolved or precipitated on room temperature storage; for % solids in Et-LPK that did not (completely) dissolve or precipitated at room temperature: not completely dissolved or precipitated on room temperature storage.

Setting [4] is: solvent Et-LGK, still soluble after storage at room temperature (24 hours to 5 days) where stated.

The structures appear in SMILES notation. Several values for one entry are separate records, joined by “and”; a condition that tells them apart may be missing. Identical values can stand only once.

With `CCOC(=O)CCC1(C)OCCO1` [ethyl-LEK], the “miscible in water to the extent of” value in data set [1] is 5 parts per 95 parts of water by weight.
On to `CCOC(=O)CCC1(C)OCC(CO)O1` (stereo not shown) [ethyl-LGK], for which, in data set [1], the miscible with water entry is “in all proportions” and the “dissolves or is miscible with organic compounds to the extent of” value (“dissolves or is miscible” for short) was “at least 20 parts of the organic compound in 80 parts”.
Consider `CCOC(=O)CCC1(C)OCC(C)O1` (stereo not shown) [ethyl-LPK], for which, in data set [1], the “miscible in water to the extent of” value was 2.5 parts in 97.5 parts of water and the “dissolves or is miscible” value is “at least 20 parts of the organic compound in 80 parts”.
As to `COC(=O)c1ccc(O)cc1` [methyl paraben, Methyl paraben], the “level at which by itself immiscible in water” value (“level at which … in water” below) in data set [2] (no ketal) worked out at 1 % by weight.
Take `COC(=O)CCC1(C)OCC(CO)O1` (stereo not shown) [methyl-LGK]: the miscible with water entry in data set [1] is reported as “in all proportions”. For the same compound, the “Result (miscibility of ketal with water)” value in data set [2] (50.0% ketal / 50.0% water, no oxybenzone) was “Miscible”.
In the case of `CCCCOC(=O)CCC1(C)OCC(CO)O1` (stereo not shown) [n-butyl-LGK], in data set [1], the “miscible with water to the extent of” value amounted to 1 part per 99 parts water and the “dissolves or is miscible” value is given as “at least 20 parts of the organic compound in 80 parts”.
Turning to `CCCCOC(=O)CCC1(C)OCC(C)O1` (stereo not shown) [n-butyl-LPK], in data set [1], the “miscible with water to the extent of” value is “about 1 part per 99 parts water” and the “dissolves or is miscible” value was “at least 20 parts of the organic compound in 80 parts”.
Take `CCCOC(=O)CCC1(C)OCC(CO)O1` (stereo not shown) [n-propyl-LGK]: in data set [1], the “miscible with water to the extent of” value amounted to 1 part per 99 parts water.
On to `CCCCC(CC)COC(=O)C=Cc1ccc(OC)cc1` (stereo not shown) [octyl methoxycinnamate, Ethylhexyl methoxy cinnamate], for which the “50/50 mixture with Bu-LGK” value in data set [3] (room temperature) is on record as “soluble”. Besides, in data set [3] (room temperature where stated), the “50/50 mixture with Et-LGK” value is “soluble” and the “50/50 mixture with Et-LPK” value is reported as “soluble”.
Regarding `COc1ccc(C(=O)c2ccccc2)c(O)c1` [oxybenzone, Oxybenzone], in data set [3] (after 2 weeks at room temperature), the “% solids dissolved in LEK with heat, no precipitation” value was found to be 37.5%. In data set [3] (room temperature), the “% solids that did not dissolve in ACAc-GK” value was 31.9%, the “% solids that did not dissolve in methyl-LGK” value came out at 14.9% and the “% solids that did not dissolve in propyl-LGK” value is 17.8%. In addition, the “% solids dissolved in Bu-LGK at room temperature, no precipitation” value in data set [3] (solvent Bu-LGK, still soluble after 24 hours / 1 day at room temperature) was 10%. In addition, the “% solids dissolved in Et-LEK at room temperature” value in data set [3] (solvent Et-LEK) is recorded as 28.5%. The “% solids dissolved in Et-LGK with heat, no precipitation” value in data set [3] (solvent Et-LGK, dissolved at 35-80° C., still soluble after storage at room temperature (24 hours to 5 days) where stated) is reported as 20%. Also, in data set [3] (solvent Et-LGK), the “% solids in Et-LGK that did not (completely) dissolve or precipitated at room temperature” value turned out to be 25%. For the same compound, the “% solids dissolved in Et-LGK at room temperature, no precipitation” value in data set [3] (setting [4]) was 10% and 18%. In addition, the “% solids dissolved in Et-LPK with heat, no precipitation” value in data set [3] (solvent Et-LPK, dissolved at 50-80° C. or with heat, still soluble after storage at room temperature (24 hours to 5 days)) is 30%. For the same compound, in data set [3] (solvent Et-LPK), the “% solids in Et-LPK that did not (completely) dissolve or precipitated at room temperature” value is 40%. Further, in data set [2], the “maximum solubility in propyl-LGK” value is given as 10-18% and the “upper limit of solubility in ethanol” value is listed as 6.5-10%. In addition, in data set [2] (Et-AcAc-GK as a cosolvent (with water)), the “concentration achieved in a solution” value was at most 29%. Besides, in data set [2] (Et-LEK as a cosolvent), the “concentration achieved in an ethanolic solution” value is recorded as at most 30%. In addition, the “concentration achieved in a solution” value in data set [2] (Methyl-LGK as a cosolvent (with water)) was at most 10%. In addition, the “concentration achieved in a solution” value in data set [2] (alkyl ketal solvent mixture (Et-LGK and Et-LPK 80/20) as a cosolvent (with water)) is on record as at most 20%. Also, in data set [2] (ethyl-LGK as a cosolvent), the “concentration achieved in a water solution” value is at most 13% and the “concentration achieved in an ethanolic solution” value is at most 17%. The “concentration achieved in an ethanolic solution” value in data set [2] (ethyl-LPK as a cosolvent) is on record as at most 28%. In data set [2] (no ketal), the “level at which by itself immiscible in ethanol” value amounted to 10 % by weight and the “level at which … in water” value is on record as 1 % by weight.
Consider `OCCOc1ccccc1` [phenoxyethanol, Phenoxyethanol], for which the “amount dissolved / solubilized by Et-LGK/water cosolvent mixtures” value in data set [2] is given as around 50 % by weight.
As to `CCCOC(=O)c1ccc(O)cc1` [propyl paraben, Propyl paraben], in data set [2], the “level of miscibility in Et-LGK by itself” value was at most 24%. Besides, the “level at which … in water” value in data set [2] (no ketal) is listed as below 1 % by weight.
Turning to `O=C(O)c1ccccc1O` [salicylic acid, Salicylic acid], the “% solids dissolved in Bu-LGK with heat, no precipitation” value in data set [3] (solvent Bu-LGK, dissolved at 50-80° C., still soluble after 24 hours at room temperature where stated) is 10%. For the same compound, in data set [3] (solvent Et-LGK), the “% solids in Et-LGK that did not (completely) dissolve or precipitated at room temperature” value came out at 20.8%. Moreover, the “% solids dissolved in Et-LGK at room temperature, no precipitation” value in data set [3] (setting [4]) is listed as 15%. For the same compound, the “% solids in Et-LPK that did not (completely) dissolve or precipitated at room temperature” value in data set [3] (solvent Et-LPK) was 14.3%. Further, in data set [3] (solvent Et-LPK, still soluble after 24 hours / 1 day at room temperature where stated), the “% solids dissolved in Et-LPK at room temperature, no precipitation” value is on record as 11%.
